Test results reported in PMC10564737, “Structure-based design of a phosphotyrosine-masked covalent ligand targeting the E3 ligase SOCS2” (Nature Communications, 2023).
Values joined by “and” are separate entries in the source; they are usually repeats but may differ in a detail not shown here. Equal values may be shown once.

Molecular target: T1, SBC2 (Homo sapiens, UniProt O14508)
T1 construct: SOCS2 (amino acids 32–198); His6 (N, cleaved yes); made in house; host or cells: E. coli BL21(DE3)
Assay: Covalent fluorescence polarization (FP) probe displacement assay
Assay type: binding
Description: With the specific covalent modification of Cys111 established, we decided to fully characterize MN551 as a covalent SOCS2 inhibitor. […] (Fig. 2g, h, Supplementary Fig. 9). Due to the covalent nature of the competing inhibitor, a time-dependent reduction in the fraction of protein-bound probe is observed. […] This value illustrates reasonable specificity for a covalent inhibitor, with nonetheless scope for future optimization. In addition to characterizing the kinetic covalency parameters, we have also assessed the stability of the MN551 by monitoring its reactivity (half-life >70 min) with reduced glutathione (GSH) (Supplementary Fig. 10)[35].
To monitor the SBC2-ligand binding kinetics we designed a fluorescein-labeled small-molecule probe - compound 26. The fluorescence polarization (anisotropy) of a threefold serial dilution of 50 µM SBC2 in 10 nM of the probe in 100 mM HEPES pH 7.5, 50 mM NaCl, 0.5 mM TCEP, 2% DMSO was measured to determine the KL (Supplementary Fig. 9A) (BMG Labtech PHERAstar – firmware v1.33). Protein titration and the curves were fitted using GraphPad Prism 9, using one-site fitting models to determine the probe binding constant, KL. Samples were run in triplicate in 384 well plates, using a total volume per well of 16 μL. The bound fraction of the probe is measure using the equation:1 Fb=Af−A/Af−Ab Where,
A time-dependent reduction in probe anisotropy were measured for a 2-fold serial dilution of […] compound MN551 in 10 nM probe +300 μM SBC2. To determine the initial reversible binding affinity, the initial bound fraction of the probe at time = 0, Fbo (the y-intercept in Fb v/s Time plot, Supplementary Fig. 9B) was plotted against MN551 concentration, and the obtained IC50 is then converted to Ki (Supplementary Fig. 9C)[17]. The slope from Fb versus time graph when divided by Fbo gives rate of covalency, kobs. A plot of kobs v/s MN551 concentration using Michaelis–Menten model of GraphPad Prism 9, provides the parameters kinact (maximum potential rate of inactivation) and KI (concentration of MN551 at which kobs = kinact/2) (Supplementary Fig. 9D, E).
The observed first-order rate constant, kobs is related to KI and kinact by the equation:2 kobs=kinactI/KI+I
At [I]«[KI] the above equation is converted to3 […]
The slope from the plot of kobs against concentration of MN551 gives us the covalent efficiency parameter kinact/KI (Supp Fig. 9F)[30],[33].

[1] = MN551 260.308 nM, Cycle 12 (55 min)
[2] = MN551 260.308 nM, Cycle 19 (90 min), n=1
[3] = MN551 364.432 nM, Cycle 6 (25 min)
[4] = MN551 364.432 nM, Cycle 12 (55 min)
[5] = MN551 364.432 nM, Cycle 19 (90 min), n=1
[6] = MN551 510.204 nM, Cycle 6 (25 min)
[7] = MN551 510.204 nM, Cycle 12 (55 min)
[8] = MN551 510.204 nM, Cycle 19 (90 min), n=1
[9] = MN551 714.286 nM, Cycle 6 (25 min)
[10] = MN551 714.286 nM, Cycle 12 (55 min)
[11] = MN551 714.286 nM, Cycle 19 (90 min), n=1
[12] = MN551 781.25 nM, Cycle 6 (25 min)
[13] = MN551 1000 nM, Cycle 6 (25 min)
[14] = MN551 1000 nM, Cycle 12 (55 min)
[15] = MN551 1000 nM, Cycle 19 (90 min), n=1

T1 sequence (O14508 32-198): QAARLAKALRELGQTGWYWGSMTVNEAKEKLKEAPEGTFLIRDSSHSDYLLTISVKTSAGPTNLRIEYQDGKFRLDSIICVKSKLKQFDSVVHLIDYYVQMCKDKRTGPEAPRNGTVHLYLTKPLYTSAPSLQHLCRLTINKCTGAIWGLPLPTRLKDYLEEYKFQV
T1 sequence (Q15370 1-104 partner limits assumed): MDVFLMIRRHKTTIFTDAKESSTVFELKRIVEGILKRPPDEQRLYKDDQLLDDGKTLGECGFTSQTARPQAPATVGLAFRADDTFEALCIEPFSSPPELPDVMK
T1 sequence (Q15369 17-112 partner limits assumed): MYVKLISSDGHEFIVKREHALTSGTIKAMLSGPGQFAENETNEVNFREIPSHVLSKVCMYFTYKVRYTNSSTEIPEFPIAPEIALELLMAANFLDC

Structure (SMILES): O=C(CCl)Nc1cccc(CNC(=O)[C@H](Cc2ccc(OP(=O)(O)O)cc2)NC(=O)Cc2ccc(F)cc2)c1 [MN551]
- Fb (MN551 260.308 nM, Cycle 6 (25 min)): 0.9065 and 0.9342 and 0.9573
- Anisotropy [1]: 262.5 and 259.9 and 257.4
- Fb [1]: 0.8574 and 0.8591 and 0.8311
- Anisotropy data 485,520,520 [2]: 254.9 and 255 and 252.4
- Anisotropy normalised (0 nM MN551 = 1, free probe = 0) [2]: 0.8373 and 0.852 and 0.8299
- Anisotropy normalised (0 nM MN551 = 1, free probe = 0) (MN551 260.308 nM, Cycle 20 (95 min), n=1): 0.8182 and 0.7955 and 0.8068
- Anisotropy based on Raw Data (485) (MN551 364.432 nM, Cycle 7 (30 min)): 266.3 and 261.1 and 263
- Normalised anisotropy (0 nM MN551 = 1, free probe = 0) (MN551 364.432 nM, Cycle 13 (60 min), n=1): 0.8082 and 0.788 and 0.7925
- Normalised anisotropy (0 nM MN551 = 1, free probe = 0) (MN551 364.432 nM, Cycle 14 (65 min), n=1): 0.8132 and 0.8023 and 0.7716
- Normalised anisotropy (0 nM MN551 = 1, free probe = 0) (MN551 364.432 nM, Cycle 15 (70 min), n=1): 0.8109 and 0.8027 and 0.7817
- Fb, fraction bound (MN551 364.432 nM, Cycle 3 (10 min)): 0.8953 and 0.9033 and 0.8725
- Anisotropy data 485,520,520 [3]: 261.2 and 252.2 and 253.6
- Fb [3]: 0.8702 and 0.8783 and 0.9647
- Anisotropy [4]: 258 and 255.4 and 255.3
- Fb [4]: 0.8155 and 0.8159 and 0.8109
- Anisotropy data 485,520,520 [5]: 251.5 and 248.8 and 245.6
- Anisotropy normalised (0 nM MN551 = 1, free probe = 0) [5]: 0.8046 and 0.79 and 0.7638
- Anisotropy normalised (0 nM MN551 = 1, free probe = 0) (MN551 364.432 nM, Cycle 20 (95 min), n=1): 0.7592 and 0.7548 and 0.7585
- Anisotropy based on Raw Data (485) (MN551 390.625 nM, Cycle 7 (30 min)): 269.8 and 271.4 and 267.4
- Fb, fraction bound (MN551 390.625 nM, Cycle 2 (5 min)): 0.9917 and 0.9704 and 0.9496
- Fb, fraction bound (MN551 390.625 nM, Cycle 3 (10 min)): 0.9862 and 0.9672 and 0.9437
- Anisotropy (MN551 390.625 nM, Cycle 12 (55 min)): 270.6 and 267.1 and 265.1
- Anisotropy based on Raw Data (485) (MN551 510.204 nM, Cycle 7 (30 min)): 261.7 and 259.3 and 261
- Anisotropy based on Raw Data (485) (MN551 510.204 nM, Cycle 8 (35 min)): 261.5 and 258.9 and 258.8
- Normalised anisotropy (0 nM MN551 = 1, free probe = 0) (MN551 510.204 nM, Cycle 13 (60 min), n=1): 0.7484 and 0.7226 and 0.7442
- Normalised anisotropy (0 nM MN551 = 1, free probe = 0) (MN551 510.204 nM, Cycle 14 (65 min), n=1): 0.7755 and 0.7213 and 0.7092
- Normalised anisotropy (0 nM MN551 = 1, free probe = 0) (MN551 510.204 nM, Cycle 15 (70 min), n=1): 0.7476 and 0.7154 and 0.7087
- Fb, fraction bound (MN551 510.204 nM, Cycle 3 (10 min)): 0.8721 and 0.8651 and 0.8107
- Anisotropy data 485,520,520 [6]: 257.3 and 244.3 and 249.4
- Fb [6]: 0.8302 and 0.8538 and 0.9038
- Anisotropy [7]: 252.2 and 248.3 and 248.9
- Fb [7]: 0.7614 and 0.7478 and 0.7495
- Anisotropy data 485,520,520 [8]: 243.6 and 240.1 and 238.9
- Anisotropy normalised (0 nM MN551 = 1, free probe = 0) [8]: 0.7286 and 0.703 and 0.6987
- Anisotropy normalised (0 nM MN551 = 1, free probe = 0) (MN551 510.204 nM, Cycle 20 (95 min), n=1): 0.6867 and 0.6831 and 0.6676
- Anisotropy based on Raw Data (485) (MN551 714.286 nM, Cycle 7 (30 min)): 257.5 and 256.2 and 255.9
- Anisotropy based on Raw Data (485) (MN551 714.286 nM, Cycle 8 (35 min)): 256 and 254.7 and 255.3
- Normalised anisotropy (0 nM MN551 = 1, free probe = 0) (MN551 714.286 nM, Cycle 14 (65 min), n=1): 0.7189 and 0.6657 and 0.6727
- Normalised anisotropy (0 nM MN551 = 1, free probe = 0) (MN551 714.286 nM, Cycle 15 (70 min), n=1): 0.6832 and 0.6708 and 0.6558
- Fb, fraction bound (MN551 714.286 nM, Cycle 3 (10 min)): 0.8072 and 0.8019 and 0.7869
- Anisotropy data 485,520,520 [9]: 249.8 and 245.7 and 246.8
- Fb [9]: 0.8082 and 0.8312 and 0.8793
- Anisotropy [10]: 245.4 and 244 and 241.6
- Fb [10]: 0.698 and 0.7066 and 0.6795
- Fb (MN551 714.286 nM, Cycle 13 (60 min)): 0.6773 and 0.6691 and 0.6737
- Anisotropy data 485,520,520 [11]: 235.3 and 235.8 and 229.2
- Anisotropy normalised (0 nM MN551 = 1, free probe = 0) [11]: 0.6487 and 0.66 and 0.6045
- Anisotropy normalised (0 nM MN551 = 1, free probe = 0) (MN551 714.286 nM, Cycle 20 (95 min), n=1): 0.6238 and 0.6124 and 0.601
- Anisotropy based on Raw Data (485) (MN551 781.25 nM, Cycle 7 (30 min)): 264.8 and 264.3 and 257.5
- Fb, fraction bound (MN551 781.25 nM, Cycle 2 (5 min)): 0.8861 and 0.914 and 0.9072
- Fb, fraction bound (MN551 781.25 nM, Cycle 3 (10 min)): 0.8842 and 0.8716 and 0.861
- Anisotropy data 485,520,520 [12]: 261.7 and 267.5 and 267.1
- Fb [12]: 0.8257 and 0.8639
- Anisotropy (MN551 781.25 nM, Cycle 12 (55 min)): 254.6 and 253.4 and 251.5
- Anisotropy based on Raw Data (485) (MN551 1000 nM, Cycle 7 (30 min)): 254.7 and 249.8 and 251.7
- Anisotropy based on Raw Data (485) (MN551 1000 nM, Cycle 8 (35 min)): 251.7 and 250.9 and 246
- Normalised anisotropy (0 nM MN551 = 1, free probe = 0) (MN551 1000 nM, Cycle 14 (65 min), n=1): 0.5934 and 0.6045 and 0.5749
- Normalised anisotropy (0 nM MN551 = 1, free probe = 0) (MN551 1000 nM, Cycle 15 (70 min), n=1): 0.5741 and 0.5664 and 0.5538
- Fb, fraction bound (MN551 1000 nM, Cycle 3 (10 min)): 0.7627 and 0.7851 and 0.7345
- Anisotropy data 485,520,520 [13]: 247.9 and 241.8 and 240.6
- Fb [13]: 0.7763 and 0.812
- Anisotropy [14]: 234.4 and 236.4 and 233.2
- Fb [14]: 0.5955 and 0.6337 and 0.5988
- Fb (MN551 1000 nM, Cycle 13 (60 min)): 0.5631 and 0.5917 and 0.6014
- Anisotropy data 485,520,520 [15]: 220.4 and 223.8 and 219.7
- Anisotropy normalised (0 nM MN551 = 1, free probe = 0) [15]: 0.5053 and 0.54 and 0.5121
- Anisotropy normalised (0 nM MN551 = 1, free probe = 0) (MN551 1000 nM, Cycle 20 (95 min), n=1): 0.4971 and 0.4767 and 0.4821
